Where a name gives a salt, the structure may show the parent alone.

In one assay the test system is T1, 1N4R p-tau.
T1 construct: made in house; host or cells: E. coli (PIMAX system)
Nature of the assay: p-tau aggregation modulator screen of 1280-compound library (ThS fluorescence net change over 16 h).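 Further: 30 µM compound with 6 µM p-tau over 16 h.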 The format is biochemical.
Details: not given
In the case of `C=C(NC(=O)C(=C)NC(=O)c1csc(C2=N[C@@H]3c4csc(n4)[C@H]4NC(=O)c5csc(n5)[C@H]([C@](C)(O)[C@@H](C)O)NC(=O)[C@H]5CSC(=N5)/C(=C/C)NC(=O)[C@H]([C@@H](C)O)NC(=O)c5csc(n5)[C@]3(CC2)NC(=O)[C@H](C)NC(=O)C(=C)NC(=O)[C@H](C)NC(=O)[C@H]([C@@H](C)CC)N[C@@H]2C=Cc3c([C@H](C)O)cc(nc3[C@H]2O)C(=O)O[C@@H]4C)n1)C(N)=O` [Thiostrepton], the ThS net change is given as 503.
Take `Cc1ccc(O)c([C@H](CCN(C(C)C)C(C)C)c2ccccc2)c1` [Tolterodine tartrate]: the ThS net change is given as 422.
The compound `N[C@@H]1C[C@H]1c1ccccc1` [Tranylcypromine hydrochloride] yielded a ThS net change of 377.

The assay is the same for the next values; noted with them: 1280-compound library screen; ThS fluorescence net change over 16 h.
Compound `Cn1cnc2c1c(=O)[nH]c(=O)n2C` [Theobromine] registered a ThS net change of 392.
`Cn1c(=O)c2[nH]cnc2n(C)c1=O` [Theophylline monohydrate] had a ThS net change of 398.
On the same count and under the same terms, under `Cc1ncc(C[n+]2csc(CCO)c2C)c(N)n1` [Thiamine hydrochloride] stands 383.
Consider `CS(=O)(=O)c1ccc([C@@H](O)[C@@H](CO)NC(=O)C(Cl)Cl)cc1` [Thiamphenicol], for which the ThS net change turned out to be 380.
For `Nc1nc(=S)c2ncn([C@@H]3O[C@H](CO)[C@@H](O)[C@H]3O)c2[nH]1` [Thioguanosine], the ThS net change turned out to be 385.
`CC(C(=O)O)c1ccc(C(=O)c2ccccc2)s1` (centres unmarked) [Tiaprofenic acid] had a ThS net change of 381.
The compound `CCS(=O)(=O)CCn1c([N+](=O)[O-])cnc1C` [Tinidazole] had a ThS net change of 392.
Take `Clc1ccc2nsnc2c1NC1=NCCN1` [Tizanidine HCl]: the ThS net change stood at 386.
Compound `Cc1cccc(C)c1NC(=O)C(C)N` (centres unmarked) [Tocainide hydrochloride] had a ThS net change of 412.
In turn, `CCCCNC(=O)NS(=O)(=O)c1ccc(C)cc1` [Tolbutamide] came in with a ThS net change of 392.
Still for that read-out and setting: under `Cc1c(Cl)cccc1Nc1ccccc1C(=O)O` [Tolfenamic acid] stands 383; under `CC1(C)O[C@@H]2[C@@H](CO[C@@]3(COS(N)(=O)=O)OC(C)(C)O[C@@H]23)O1` [Topiramate], 392.
Turning to `CN(C)CCOc1ccc(/C(=C(/CCCl)c2ccccc2)c2ccccc2)cc1` [Toremifene], the ThS net change amounted to 406.
Compound `NC[C@H]1CC[C@H](C(=O)O)CC1` [Tranexamic acid] returned a ThS net change of 409.
Compound `COc1ccc(/C=C/C(=O)Nc2ccccc2C(=O)O)cc1OC` [Tranilast] registered a ThS net change of 392.

Staying with this assay, now noted: 1280-compound library screen; […].
For `S=C(NC1CCCCC1)N1CCC(c2cnc[nH]2)CC1` [Thioperamide maleate], the ThS net change is on record as 385.
Consider `C#C[C@]1(O)CC[C@H]2[C@@H]3[C@H](C)CC4=C(CCC(=O)C4)[C@H]3CC[C@@]21C` [Tibolone], for which the ThS net change was found to be 381.
In turn, `CC1(C)S[C@@H]2[C@H](NC(=O)[C@H](C(=O)O)c3ccsc3)C(=O)N2[C@H]1C(=O)O` [Ticarcillin sodium] registered a ThS net change of 407.
Compound `CNCC[C@@H](Oc1ccccc1C)c1ccccc1` [Tomoxetine hydrochloride] showed a ThS net change of 389.
The compound `C(#CCN1CCCC1)CN1CCCC1.Cl.Cl` [Tremorine dihydrochloride] gave a ThS net change of 391.

The assay is the same for the next values; noted with them: library screen, ThS fluorescence net change over 16 h with p-tau.
Compound `CCSc1ccc2c(c1)N(CCCN1CCN(C)CC1)c1ccccc1S2.O=C(O)CC(O)C(=O)O.O=C(O)CC(O)C(=O)O` [Thiethylperazine dimalate] displayed a ThS net change of 317.
In turn, `CN1CCN(CCCN2c3ccccc3Sc3ccc(S(=O)(=O)N(C)C)cc32)CC1.CS(=O)(=O)O.CS(=O)(=O)O` [Thioproperazine dimesylate] returned a ThS net change of 314.
Turning to `CSc1ccc2c(c1)N(CCC1CCCCN1C)c1ccccc1S2` (centres unmarked) [Thioridazine hydrochloride], the ThS net change came to 252.
Consider `CCCCCCCCCCCCCCCC[N+](C)(C)CCN(Cc1ccc(OC)cc1)c1ncccn1` [Thonzonium bromide], for which the ThS net change worked out at 312.
In turn, `N[C@@H](Cc1cc(I)c(Oc2cc(I)c(O)c(I)c2)c(I)c1)C(=O)O` [Thyroxine (L)] had a ThS net change of 301.
In turn, `Clc1ccc(C(Cn2ccnc2)OCc2ccsc2Cl)c(Cl)c1` (centres unmarked) [Tioconazole] yielded a ThS net change of 309.
Regarding `Cc1ccc(C(=O)c2cc(O)c(O)c([N+](=O)[O-])c2)cc1` [Tolcapone], the ThS net change amounted to 214.
For the compound `Cc1cccc(N(C)C(=S)Oc2ccc3ccccc3c2)c1` [Tolnaftate], the ThS net change was determined as 219.
The compound `O=c1n(CCCN2CCN(c3cccc(Cl)c3)CC2)nc2ccccn12` [Trazodone hydrochloride] yielded a ThS net change of 316.

The assay is the same for the next values; noted with them: p-tau aggregation modulator screen of 1280-compound library; ThS fluorescence net change.
The compound `c1ccc(C2CN3CCSC3=N2)cc1` (centres unmarked) [Tetramisole hydrochloride] had a ThS net change of 368.
In turn, `O=C1CCC(N2C(=O)c3ccccc3C2=O)C(=O)N1` (centres unmarked) [Thalidomide] had a ThS net change of 334.
The compound `c1ccc2[nH]c(-c3cscn3)nc2c1` [Tiabendazole] had a ThS net change of 355.
Still for that read-out and setting: under `CCN(CC)CCNC(=O)c1cc(S(C)(=O)=O)ccc1OC` [Tiapride hydrochloride] stands 349; under `NC[C@H]1O[C@H](O[C@H]2[C@H](O)[C@@H](O[C@H]3O[C@H](CO)[C@@H](O)[C@H](N)[C@H]3O)[C@H](N)C[C@@H]2N)[C@H](N)C[C@@H]1O` [Tobramycin], 360; under `CCOC(=O)NNc1nncc2ccccc12` [Todralazine hydrochloride], 334.
Take `c1ccc(CC2=NCCN2)cc1` [Tolazoline hydrochloride]: the ThS net change turned out to be 360.
`Cc1ccc(C(=O)c2ccc(CC(=O)O)n2C)cc1` [Tolmetin sodium salt dihydrate] returned a ThS net change of 364.
Still for that read-out and setting: the value for `Cl.NC1CCN(c2nc3c(cc2F)c(=O)c(C(=O)O)cn3-c2ccc(F)cc2F)C1` (centres unmarked) [Tosufloxacin hydrochloride] was 354.

The assay is the same for the next values; noted with them: p-tau aggregation modulator screen of 1280-compound library; […].
`COc1c(O[C@@H]2O[C@H](CO)[C@@H](O)[C@H](O)[C@H]2O)cc2c(c1OC)-c1ccc(SC)c(=O)cc1[C@@H](NC(C)=O)CC2` [Thiocolchicoside] displayed a ThS net change of 370.
Compound `COc1cccc([C@@]2(O)CCCC[C@@H]2CN(C)C)c1.Cl` [Tramadol hydrochloride] gave a ThS net change of 373.

Still in this assay, the particulars now being: p-tau aggregation modulator screen of the compound library, ThS fluorescence net change.
For `O=C(O)CNC(=O)C(CS)Cc1ccccc1` (centres unmarked) [Thiorphan], the ThS net change turned out to be 462.
Turning to `CC(C)(C)NC[C@H](O)COc1nsnc1N1CCOCC1.O=C(O)/C=C\C(=O)O` [Timolol maleate salt], the ThS net change worked out at 414.
In turn, `Cc1ccc(S(=O)(=O)NC(=O)NN2CCCCCC2)cc1` [Tolazamide] yielded a ThS net change of 458.
The same measure, in the same setting: the value for `Cc1cc(-n2c(=O)[nH]c(=O)n(C)c2=O)ccc1Oc1ccc(SC(F)(F)F)cc1` [Toltrazuril] was 511; that for `CC[C@@]1(O)C(=O)OCc2c1cc1n(c2=O)Cc2cc3c(CN(C)C)c(O)ccc3nc2-1` [Topotecan] was 5499.
As to `Cc1cccc(Nc2ccncc2S(=O)(=O)NC(=O)NC(C)C)c1` [Torsemide], the ThS net change is given as 455.
On the same count and under the same terms, the value for `CCCCNc1c(C(=O)OCC)c(C)nc2c1cnn2CC.Cl` [Tracazolate hydrochloride] was 440.

The record behind these values is article PMC7539012, “Hyperphosphorylated tau aggregation and cytotoxicity modulators screen identified prescription drugs linked to Alzheimer's disease and cognitive functions” (Scientific Reports, 2020).
